Measurements from the NIST ThermoML archive (doi:10.1016/j.tca.2016.03.009).
± gives the expanded uncertainty stated by the source.

Columns and labels:
[1] = DSC
[2] = Molar enthalpy of transition or fusion; settings: DSC

With CCCCOc1cc2c3cc(OCCCC)c(OCCCC)cc3c3cc(OCCCC)c(OCCCC)cc3c2cc1OCCCC [2,3,6,7,10,11-hexabutoxytriphenylene] the Triple point temperature ([1]; Crystal) was 360.35 ± 1 K, the Triple point temperature ([1]; Liquid crystal of unknown type) was 417.95 ± 1 K and the “Molar enthalpy of transition or fusion” value ([2]; Crystal) was 22.6 ± 0.73 kJ/mol. For the same compound, the “Molar enthalpy of transition or fusion” value ([2]; Liquid crystal of unknown type) was 18.7 ± 0.59 kJ/mol.
